Reference: patent US20210330611A1, “THERAPY FOR NEUROLOGICAL DISEASES/DISORDERS” (priority 2020, published 2021)
Where “and” joins values, the source holds several entries; their conditions need not be identical. Equal entries are not always repeated. Structures can show the parent of a compound that is named as a salt. Where two headings read alike, the source gives them in different places. Where a SMILES comes first, the peptide text is derived from it. Bridges are numbered along the chain shown (N, C = ends). [ ]: non-standard residue; d: D form. The star is where a group is joined. X1 = CC[C@H](C)CCCCC(=O)*; Dab = NCC[C@H](N)C(=O)O

What was measured:
[1] = system: fibrin-induced microglia activation; assay: Image-based assay of fibrin-induced microglia activation (HTS and dose response); assay type: cell-based, rat; conditions: for inhibition at 10 µM: read-out: Fibrin % inhibition
[2] = system: LPS-induced microglia activation; assay: Image-based assay of LPS-induced microglia activation (HTS and dose response); assay type: cell-based, rat; conditions: for inhibition at 10 µM: read-out: LPS % inhibition
[3] = system: fibrin- and LPS-induced microglia activation; assay: cells; assay type: cell-based, rat
[4] = system: primary rat microglia; assay: Cell toxicity (dead cells, size <150 μm2) in LPS assay; conditions: for IC50: read-out: Cell Toxicity IC50 (uM) [LPS assay]
[5] = system: primary rat microglia; assay: Cell toxicity (dead cells, size <150 μm2) in coated fibrin (cFib) assay; conditions: for IC50: read-out: Cell Toxicity IC50 (uM) [cFib assay];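 as to Fibrin % cell toxicity: share of dead cells sized under 150 µm2 at 10 µM in fibrin-stimulated microglia HTS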
[6] = Rattus norvegicus, Microglia, primary microglia HTS, fibrin stimulation, increased cell size (>800 μm^2) as marker of activation
[7] = Rattus norvegicus, Microglia, 48 h, primary microglia HTS, LPS stimulation, increased cell size (>800 μm^2) as marker of activation
[8] = quadrant by fibrin and LPS inhibition in HTS of 1907 compounds
[9] = primary microglia HTS, LPS stimulation, decreased size (<150 μm^2) as marker of toxicity
[10] = primary microglia HTS, fibrin stimulation, decreased size (<150 μm^2) as marker of toxicity
[11] = primary microglia HTS, fibrin stimulation, increased cell size (>800 μm^2) as marker of activation
[12] = primary microglia HTS, LPS stimulation, increased cell size (>800 μm^2) as marker of activation
[13] = Rattus norvegicus, Microglia, primary microglia HTS, fibrin stimulation, activation = cell size >800 μm2
[14] = Rattus norvegicus, Microglia, 48 h, primary microglia HTS, LPS stimulation, activation = cell size >800 μm2
[15] = primary microglia HTS, LPS stimulation, toxicity = cell size <150 μm2
[16] = primary microglia HTS, fibrin stimulation, toxicity = cell size <150 μm2
[17] = HTS of 1907 compounds, quadrant by fibrin and LPS inhibition
[18] = primary microglia HTS, fibrin stimulation, activation = cell size >800 μm2
[19] = primary microglia HTS, LPS stimulation, activation = cell size >800 μm2
[20] = Rattus norvegicus, Microglia, primary HTS, 10 μM, fibrin-stimulated primary microglia
[21] = Rattus norvegicus, Microglia, primary HTS, 10 μM, LPS-stimulated primary microglia
[22] = primary HTS, 10 μM, LPS assay, dead cells size <150 μm2
[23] = primary HTS, 10 μM, fibrin assay, dead cells size <150 μm2

## CC1(C)O[C@@H]2C[C@H]3[C@@H]4C[C@H](F)C5=CC(=O)CC[C@]5(C)[C@H]4[C@@H](O)C[C@]3(C)[C@]2(C(=O)CO)O1 [Flurandrenolide, reference compound]
[1]; Rattus norvegicus, Microglia, Table 7, read-out: fib_IC50
  IC50: 0.002 µM
[1]; [6]
  inhibition at 10 µM: 110%
[2]; [7]
  inhibition at 10 µM: 98%
[2]; Rattus norvegicus, Microglia, Table 7, read-out: LPS_IC50
  IC50: 0.002 µM
[3]; Table 2, screen at 10 μM
  Quadrant (FIG. 5b): Q2
[3]; [8]
  Quadrant (FIG. 5b): Q2
[4]; [9]
  LPS % cell toxicity: 5%
[5]; [10]
  Fibrin % cell toxicity: 6% and 5%

## O=C(Nc1ccc([N+](=O)[O-])cc1Cl)c1cc(Cl)ccc1O [Nicolsamide, Niclosamide]
[1]; [11]
  Fibrin % inhibition: −2%
[2]; [12]
  LPS % inhibition: 21%
[3]; [8]
  Quadrant (FIG. 5b): Q4
[4]; [9]
  LPS % cell toxicity: 1%
[5]; [10]
  Fibrin % cell toxicity: 1%

## CC(C)OC(=O)CCC/C=C\C[C@@H]1[C@@H](CC[C@@H](O)CCc2ccccc2)[C@H](O)C[C@@H]1O [Latanoprost]
[1]; [13]
  inhibition at 10 µM: 10%
[2]; [14]
  inhibition at 10 µM: 4%
[3]; [8]
  Quadrant (FIG. 5b): Q4
[4]; [15]
  LPS % cell toxicity: 0%
[5]; [16]
  Fibrin % cell toxicity: 1%

## Cc1ncc([N+](=O)[O-])n1CC(O)CCl (stereo not drawn) [Ornidazole]
[1]; [6]
  inhibition at 10 µM: -22%
[2]; [7]
  inhibition at 10 µM: 12%
[3]; [8]
  Quadrant (FIG. 5b): Q4
[4]; [9]
  LPS % cell toxicity: 0%
[5]; [10]
  Fibrin % cell toxicity: 0%

## NC(=O)NS(=O)(=O)c1ccc(N)cc1 [Sulfacarbamide]
[1]; Rattus norvegicus, Microglia, primary microglia HTS, 10 μM, fibrin-stimulated, cell size >800 μm^2 as marker of activation
  inhibition at 10 µM: 45%
[2]; Rattus norvegicus, Microglia, primary microglia HTS, 10 μM, LPS-stimulated, cell size >800 μm^2 as marker of activation
  inhibition at 10 µM: 46%
[3]; [17]
  Quadrant (FIG. 5b): Q4
[4]; primary microglia HTS, 10 μM, LPS assay, cell size <150 μm^2 as marker of toxicity
  LPS % cell toxicity: 0%
[5]; primary microglia HTS, 10 μM, fibrin assay, cell size <150 μm^2 as marker of toxicity
  Fibrin % cell toxicity: 1%

## Cc1onc(-c2ccccc2)c1C(=O)N[C@@H]1C(=O)N2[C@@H]1SC(C)(C)[C@@H]2C(=O)[O-].[Na+] [Oxacillin Sodium]
[1]; [11]
  Fibrin % inhibition: −20%
[2]; [12]
  LPS % inhibition: 11%
[3]; [8]
  Quadrant (FIG. 5b): Q4
[4]; [9]
  LPS % cell toxicity: 0%
[5]; [10]
  Fibrin % cell toxicity: 0%

## Cc1oncc1C(=O)Nc1ccc(C(F)(F)F)cc1 [Lefunamide, Leflunomide]
[1]; [18]
  Fibrin % inhibition: −22%
[2]; [19]
  LPS % inhibition: 10%
[3]; [8]
  Quadrant (FIG. 5b): Q4
[4]; [15]
  LPS % cell toxicity: 0%
[5]; [16]
  Fibrin % cell toxicity: 0%

## CC1(C)[C@@H](OC(=O)CCC(=O)O)CC[C@]2(C)[C@H]3C(=O)C=C4[C@@H]5C[C@@](C)(C(=O)O)CC[C@]5(C)CC[C@@]4(C)[C@]3(C)CC[C@@H]12 [Carbenoxolone Sodium]
[1]; [20]
  inhibition at 10 µM: 16%
[2]; [21]
  inhibition at 10 µM: 6%
[3]; primary HTS, 10 μM
  Quadrant (FIG. 5b): Q4
[4]; [22]
  LPS % cell toxicity: 0%
[5]; [23]
  Fibrin % cell toxicity: 0%

## COCCc1ccc(OCC(O)CNC(C)C)cc1 (stereo not drawn) [Metoprolol]
[1]; [6]
  inhibition at 10 µM: 4%
[2]; [7]
  inhibition at 10 µM: 22%
[3]; [8]
  Quadrant (FIG. 5b): Q4
[4]; [9]
  LPS % cell toxicity: 0%
[5]; [10]
  Fibrin % cell toxicity: 1%

## C[C@H](CCC(=O)O)[C@H]1CC[C@H]2[C@@H]3[C@H](O)C[C@@H]4C[C@H](O)CC[C@]4(C)[C@H]3CC[C@]12C [Chenodiol]
[1]; [20]
  inhibition at 10 µM: -32%
[2]; [21]
  inhibition at 10 µM: 4%
[3]; primary HTS, 10 μM
  Quadrant (FIG. 5b): Q4
[4]; [22]
  LPS % cell toxicity: 0%
[5]; [23]
  Fibrin % cell toxicity: 0%

## C[C@@H]1CC(=O)NN=C1c1ccc(NN=C(C#N)C#N)cc1 [Levosimendan]
[1]; [13]
  inhibition at 10 µM: 46%
[2]; [14]
  inhibition at 10 µM: 42%
[3]; [8]
  Quadrant (FIG. 5b): Q4
[4]; [15]
  LPS % cell toxicity: 0%
[5]; [16]
  Fibrin % cell toxicity: 1%

## CC[C@H](C)CCCCC(=O)N[C@@H](CCN)C(=O)N[C@H](C(=O)N[C@@H](CCN)C(=O)N[C@H]1CCNC(=O)[C@H]([C@@H](C)O)NC(=O)[C@H](CCN)NC(=O)[C@H](CCN)NC(=O)[C@H](CC(C)C)NC(=O)[C@@H](Cc2ccccc2)NC(=O)[C@H](CCN)NC1=O)[C@@H](C)O [Polymyxin B1] (X1-[Dab]T[Dab][Dab][Dab][dF]L[Dab][Dab]T; lactam 4-C)
[1]; [11]
  Fibrin % inhibition: −21%
[2]; [12]
  LPS % inhibition: 60%
[3]; [8]
  Quadrant (FIG. 5b): Q1
[4]; [9]
  LPS % cell toxicity: 1%
[5]; [10]
  Fibrin % cell toxicity: 1%

## COC(=O)[C@@H]1CC2=CC(=O)CC[C@]2(C)[C@@]23O[C@@H]2C[C@@]2(C)[C@@H](CC[C@@]24CCC(=O)O4)[C@H]13 [Eplerenore, reference compound]
[1]
  Fibrin Selectivity: 8
  Fibrin Selectivity (LOG10): 0.88
[1]; Table 1, dose response 0.001-20 μM, triplicates, primary rat microglia, 48 h, read-out: Fibrin IC50
  IC50: 3 µM
[1]; Table 3, read-out: Fibrin IC50 (uM) (Suppl. Table 7)
  IC50: 3 µM
[1]; dose response, fibrin-induced microglia activation, read-out: Fibrin IC50
  IC50: 3 µM
[1]; fibrin-induced microglia activation, dose response, read-out: Fibrin IC50 (uM) (Suppl. Table 7)
  IC50: 3 µM
[1]; [11]
  Fibrin % inhibition: 63%
[2]; LPS-induced microglia activation, dose response, read-out: LPS IC50 (uM) (Suppl. Table 7)
  IC50: > 20 µM
[2]; Table 1, dose response 0.001-20 μM, triplicates, primary rat microglia, 48 h, read-out: LPS IC50
  IC50: > 20 µM
[2]; Table 3, read-out: LPS IC50 (uM) (Suppl. Table 7)
  IC50: > 20 µM
[2]; dose response, LPS-induced microglia activation, read-out: LPS IC50
  IC50: > 20 µM
[2]; [12]
  LPS % inhibition: 69%
[3]; HTS hit classification
  Hit: HIT (Hits were defined as molecules that exhibited greater than 50% inhibition of either fibrin or LPS activation)
[3]; [17]
  Quadrant (FIG. 5b): Q2
[3]; Table 1, screen at 10 μM
  Quadrant (FIG. 5b): Q2
[3]; Table 3
  Cherry-picked Hit (Suppl. Table 7): HIT (Hits were defined as molecules that exhibited greater than 50% inhibition of either fibrin or LPS activation)
[3]; Table 3, screen at 10 μM
  Quadrant (FIG. 5b): Q2
[3]; hit classification in microglia HTS
  Cherry-picked Hit (Suppl. Table 7): HIT (Hits were defined as molecules that exhibited greater than 50% inhibition of either fibrin or LPS activation)
[3]; [8]
  Quadrant (FIG. 5b): Q2
[4]; [9]
  LPS % cell toxicity: 2%
[4]; LPS assay
  IC50: > 20 µM
[4]; Table 3
  IC50: > 20 µM
[5]; [10]
  Fibrin % cell toxicity: 2%
[5]; Table 3
  IC50: > 20 µM
[5]; cFib assay
  IC50: > 20 µM

## CCCCOc1ccc(CC(=O)NO)cc1 [Bufexamac]
[1]; [20]
  inhibition at 10 µM: -2%
[2]; [21]
  inhibition at 10 µM: 17%
[3]; primary HTS, 10 μM
  Quadrant (FIG. 5b): Q4
[4]; [22]
  LPS % cell toxicity: 0%
[5]; [23]
  Fibrin % cell toxicity: 1%

## Cc1ncc(COP(=O)([O-])[O-])c(CN(CCN(CC(=O)[O-])Cc2c(COP(=O)([O-])[O-])cnc(C)c2[O-])CC(=O)[O-])c1[O-].[H+].[H+].[H+].[Mn+2].[Na+].[Na+].[Na+] [Mangafodipir Trisodium]
[1]; [11]
  Fibrin % inhibition: 1%
[2]; [12]
  LPS % inhibition: 11%
[3]; [8]
  Quadrant (FIG. 5b): Q4
[4]; [9]
  LPS % cell toxicity: 0%
[5]; [10]
  Fibrin % cell toxicity: 1%

## CC(C)(C)NC[C@H](O)COc1cccc2c1CCCC2=O [Levobunolol Hydrochloride]
[1]; [18]
  Fibrin % inhibition: −19%
[2]; [19]
  LPS % inhibition: 12%
[3]; [8]
  Quadrant (FIG. 5b): Q4
[4]; [15]
  LPS % cell toxicity: 0%
[5]; [16]
  Fibrin % cell toxicity: 0%

## O=C1Nc2ccc(Cl)cc2C(c2ccccc2Cl)=NC1O (stereo not drawn) [Lorazepam]
[1]; [13]
  inhibition at 10 µM: -13%
[2]; [14]
  inhibition at 10 µM: -1%
[3]; [8]
  Quadrant (FIG. 5b): Q4
[4]; [15]
  LPS % cell toxicity: 0%
[5]; [16]
  Fibrin % cell toxicity: 1%
